Source: ChEMBL document CHEMBL1201862, “PubChem BioAssay data set” (2004)
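Interpolation was linear, between the two tested concentrations surrounding the appropriate level; five concentrations were tested over 48 hours in 96-well plates. GI50 = concentration required for 50% inhibition of growth.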 Active and inactive are the calls of the source. Cut-off read from the data, not from the text of the source: active = GI50 up to about 1.1 µM and inactive = higher.

How the values were obtained:
Experiment in all cases: DTP human tumour cell line panel, 48 h
[1] = tested on: MDA-N
[2] = tested on: NCI-H226
[3] = tested on: MCF7
[4] = tested on: Hs-578T
[5] = tested on: HOP-92
[6] = tested on: UO-31
[7] = tested on: MOLT-4
[8] = tested on: SK-MEL-5
[9] = tested on: SW-620
[10] = tested on: OVCAR-5
[11] = tested on: ACHN
[12] = tested on: T47D
[13] = tested on: EKVX
[14] = tested on: A498
[15] = tested on: DU-145
[16] = tested on: HCT-116
[17] = tested on: SN12C
[18] = tested on: HT-29
[19] = tested on: SF-295
[20] = tested on: RXF 393

Measured: GI50

CN(C(=O)Cc1ccccc1)n1cn[n+](CC(=O)OC(C)(C)C)c1
inactive: [1] > 10 µM | [2] > 10 µM | [3] > 10 µM | [4] > 10 µM | [5] > 10 µM | [6] > 10 µM | [7] > 10 µM | [8] > 10 µM | [9] > 10 µM | [10] > 10 µM | [11] > 10 µM | [12] > 10 µM | [13] > 10 µM | [14] > 10 µM | [15] > 10 µM | [16] > 10 µM | [17] > 10 µM | [18] > 10 µM | [19] > 10 µM

N#CCc1nc(-c2ccccc2)n[nH]1
inactive: [1] > 100 µM | [3] > 100 µM | [4] 77.4 µM | [20] > 100 µM | [6] > 100 µM | [7] > 100 µM | [8] > 100 µM | [9] > 100 µM | [10] > 100 µM | [11] > 100 µM | [12] > 100 µM | [13] 83.6 µM | [15] > 100 µM | [16] > 100 µM | [17] > 100 µM | [18] > 100 µM | [19] > 100 µM

CN1C2CCC1C(C(O)c1ccccc1[N+](=O)[O-])C(=O)C2 (configuration not stated)
inactive: [1] 27 µM | [2] 24.2 µM | [3] 39.1 µM | [4] 53.2 µM | [6] 47.1 µM | [7] 47.4 µM | [8] 31.1 µM | [9] 45.2 µM | [10] > 100 µM | [11] > 100 µM | [12] 26.6 µM | [13] > 100 µM | [14] > 100 µM | [15] 28.3 µM | [16] 32.3 µM | [17] 33.7 µM | [18] 32.4 µM | [19] 58.1 µM

COC(=O)C1=C(C(=O)OC)SC(=C2S[C@@H]3[C@@H]4C[C@H]([C@@H]3S2)[C@H]2C(=O)OC(=O)[C@@H]42)S1
inactive: [2] > 100 µM | [3] > 100 µM | [4] > 100 µM | [5] > 100 µM | [20] > 100 µM | [6] > 100 µM | [7] > 100 µM | [8] > 100 µM | [9] > 100 µM | [10] > 100 µM | [11] > 100 µM | [12] > 100 µM | [13] > 100 µM | [14] > 100 µM | [15] > 100 µM | [16] > 100 µM | [17] > 100 µM | [18] > 100 µM | [19] > 100 µM

CCCNC(=S)N/N=C/c1cccc(C)n1
inactive: [1] 30.6 µM | [2] 19.8 µM | [3] 41.2 µM | [4] > 100 µM | [5] 49 µM | [20] 28.1 µM | [6] 17.2 µM | [7] 16.8 µM | [8] 31.7 µM | [10] 44.5 µM | [11] 13.4 µM | [12] 3.43 µM | [13] 30.9 µM | [14] 33 µM | [16] 7.18 µM | [17] 29.2 µM | [18] 18 µM | [19] 32.8 µM

N#C/C(N)=C(C#N)/N=C/Nc1ccc(N)cc1
inactive: [1] > 100 µM | [2] > 100 µM | [3] 96.6 µM | [4] 95.3 µM | [6] > 100 µM | [7] > 100 µM | [8] 29.2 µM | [9] > 100 µM | [10] > 100 µM | [11] > 100 µM | [12] > 100 µM | [13] > 100 µM | [14] > 100 µM | [15] > 100 µM | [16] > 100 µM | [17] > 100 µM | [18] > 100 µM | [19] > 100 µM

CN1CCN(C(=O)CCC(=O)Nc2cc3c(c4ccccc24)-c2ccc4ccccc4c2C3)CC1
inactive: [2] 1.76 µM | [3] 1.51 µM | [4] 2.63 µM | [5] 1.73 µM | [20] 1.73 µM | [6] 1.65 µM | [7] 1.77 µM | [8] 1.6 µM | [10] 1.67 µM | [11] 2.12 µM | [12] 1.7 µM | [13] 1.67 µM | [14] 13.8 µM | [15] 1.77 µM | [16] 1.55 µM | [17] 1.79 µM | [18] 1.72 µM | [19] 1.71 µM
